Structures can show the parent of a compound that is named as a salt.
Tested on: serum protein
Details: pH 1.0, 30 minutes
Protocol: Contents of the tubes are set out in TABLE II below:
The four tubes were incubated at room temperature for 30 minutes. At the end of the incubation, 4.0 ml of sodium barbital buffer (0.075 M, pH 8.6) was added and mixed with the contents of each tube. The radioactivity of each tube was measured with a gammacounter.
Each of the tubes was then transferred to an Amicon ultrafiltration cone with a centrifuge tube attachment. The tubes were centrifuged for 45 minutes at 2,200 × g at room temperature. The entire ultrafiltrate was collected and the radioactivity counted.
a = radioactivity before ultrafiltration,
b = the radioactivity in the ultrafiltrate

| Compound | destruction of thyroxine binding sites of the serum proteins |
| --- | --- |
| pepsin | completely destroyed |
| Cl [HCl, Hydrochloric acid] | only partially destroy |
